According to patent US9764059B2, “Chlorhexidine gluconate containing solvent adhesive” (Avery Dennison Corporation, priority 2011, dated 2017):

How the values were obtained:
[1] = Solubility; assay type: physicochemical
[2] = cited from earlier work

For `N=C(NCCCCCCNC(=N)NC(=N)Nc1ccc(Cl)cc1)NC(=N)Nc1ccc(Cl)cc1` [Chlorhexidine base], the solubility in water [1] was “low solubility in water”.

In the case of `N=C(NCCCCCCNC(=N)NC(=N)Nc1ccc(Cl)cc1)NC(=N)Nc1ccc(Cl)cc1.O=C(O)[C@H](O)[C@@H](O)[C@H](O)[C@H](O)CO.O=C(O)[C@H](O)[C@@H](O)[C@H](O)[C@H](O)CO` [chlorhexidine gluconate], the solubility in solvents [2] is listed as “only soluble in methanol and acetone”.
